Measurements reported in the NIST ThermoML archive (doi:10.1016/j.tca.2004.12.015).
Numbers after ± are expanded uncertainties.

Columns and labels:
[1] = Molar enthalpy of transition or fusion; settings: Adiabatic calorimetry
[2] = Adiabatic calorimetry

In the case of `N#CCCNc1ccccc1` [3-anilinopropanenitrile], the “Molar enthalpy of transition or fusion” value ([1]; Crystal 1) is reported as 0.2342 ± 0.0012 kcal/mol, the “Molar enthalpy of transition or fusion” value ([1]; Crystal 2) is reported as 4.6367 ± 0.0012 kcal/mol and the Triple point temperature ([2]; Crystal 1) is reported as 323.5 ± 0.1 K. It also gave a Triple point temperature ([2]; Crystal 2) of 310.63 ± 0.05 K.
